These results are taken from BindingDB's records for patent US20250313563 (The Broad Institute, 2025).

The structures appear in SMILES notation. Several values for one entry are separate records, joined by “and”; a condition that tells them apart may be missing. Identical values can stand only once.

Usually IC50 stands for the concentration at which inhibition is half-maximal.

Assay [1] addresses Glycogen synthase kinase-3 beta (Homo sapiens, UniProt P49841). Kind of assay: TR-FRET Assay. The gist of the method: (§1)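 Signal is measured as TR-FRET between a terbium anti-phospho-Ser641 antibody and streptavidin-d2, added after an EDTA quench. Compounds are preincubated 30 min in assay buffer.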
A general note: TR-FRET usually uses a lanthanide donor and a delayed reading to cut background.

Assay [2] deals with Glycogen synthase kinase-3 alpha (Homo sapiens, UniProt P49840). Kind of assay: TR-FRET Assay. A digest of the protocol:
as §1

Sequence of Glycogen synthase kinase-3 beta (P49841 whole entry): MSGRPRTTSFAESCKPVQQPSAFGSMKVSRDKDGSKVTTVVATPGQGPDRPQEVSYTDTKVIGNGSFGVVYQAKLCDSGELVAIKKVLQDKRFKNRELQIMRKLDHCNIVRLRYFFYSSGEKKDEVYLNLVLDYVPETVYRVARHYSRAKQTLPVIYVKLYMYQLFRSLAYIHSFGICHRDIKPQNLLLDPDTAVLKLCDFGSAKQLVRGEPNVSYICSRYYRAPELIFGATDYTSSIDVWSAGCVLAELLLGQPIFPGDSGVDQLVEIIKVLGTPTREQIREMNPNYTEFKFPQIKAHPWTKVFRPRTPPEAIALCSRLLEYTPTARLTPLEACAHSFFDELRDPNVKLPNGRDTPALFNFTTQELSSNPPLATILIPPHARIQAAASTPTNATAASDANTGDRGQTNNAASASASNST
Sequence of Glycogen synthase kinase-3 alpha (P49840 whole entry): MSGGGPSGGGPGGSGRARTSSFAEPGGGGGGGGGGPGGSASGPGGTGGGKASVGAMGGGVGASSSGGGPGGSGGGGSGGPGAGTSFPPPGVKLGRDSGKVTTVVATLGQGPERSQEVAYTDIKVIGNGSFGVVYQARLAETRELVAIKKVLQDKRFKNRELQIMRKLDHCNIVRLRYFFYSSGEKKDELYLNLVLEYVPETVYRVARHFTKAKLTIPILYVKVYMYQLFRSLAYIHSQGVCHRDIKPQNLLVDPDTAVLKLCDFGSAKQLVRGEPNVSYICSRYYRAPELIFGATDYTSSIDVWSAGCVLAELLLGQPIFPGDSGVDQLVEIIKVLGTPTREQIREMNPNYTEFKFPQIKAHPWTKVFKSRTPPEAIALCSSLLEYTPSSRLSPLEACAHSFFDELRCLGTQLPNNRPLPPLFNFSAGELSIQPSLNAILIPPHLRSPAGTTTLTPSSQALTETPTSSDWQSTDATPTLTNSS

Consider `CC[C@@]1(c2cccc(-c3cnn(-c4ccncn4)c3)c2)C2=CN=NC2NC2=C1C(=O)NC(C)(C)C2` (some centres not stated) [US20250313563, Compound 952016], for which the IC50 in assay [1] fell in the range of 1 to 5 µM; in assay [2] it was 0.1 to 1 µM.

In the case of `CC[C@@]1(c2cccc(-c3c(C)cnc4c(C)cccc34)c2)C2=CN=NC2NC2=C1C(=O)NC(C)(C)C2` (some centres not stated) [US20250313563, Compound 952760], the IC50 in assay [1] and in assay [2] was over 5 µM each time.

On to `CC[C@@]1(c2cccc(C(F)(F)F)c2)C2=CN=NC2NC2=C1C(=O)N(c1cn(C)c(C)n1)CC2` (some centres not stated) [US20250313563, Compound 952479], for which the IC50 in assay [1] and in assay [2] was over 5 µM each time.

Regarding `CC[C@@]1(c2cccc(C(F)(F)F)c2)C2=C(CC(C)(C)NC2=O)NC2N=NC(F)=C21` (some centres not stated) [US20250313563, Compound 957497], the IC50 in assay [1] and in assay [2] was over 5 µM in each case.

On to `CCC1(c2cccc(N3CCOCC3)c2)C2=C(CC(C)(C)CC2=O)NC2N=NC(C)=C21` (configuration not stated) [US20250313563, Compound 874312], for which the IC50 in assay [1] and in assay [2] was under 0.1 µM throughout.

As for `CCC1(c2cccc(-c3cnnc(C)c3)c2)C2=CN=NC2NC2=C1C(=O)CC(C)(C)C2` (configuration not stated) [US20250313563, Compound 926844], the IC50 in assay [1] was 0.1 to 1 µM; in assay [2], under 0.1 µM.

In the case of `CC[C@@]1(c2cccc(-c3ccnc4cc(F)cnc34)c2)C2=CN=NC2NC2=C1C(=O)NC(C)(C)C2` (some centres not stated) [US20250313563, Compound 952758], the figures for the IC50 in assay [1] and in assay [2] were 0.1 to 1 µM and under 0.1 µM, respectively.

On to `CC[C@@]1(c2cccc(C(F)(F)F)c2)C2=C(N=NC2)NC2=C1C(=O)N(C)C2` [US20250313563, Compound 945368], for which the IC50 in assay [1] and in assay [2] was over 5 µM each time.

In the case of `CCC1(c2cccc(OC)c2)C2=C(CC(C)(C)NC2=O)NC2N=NC(C)=C21` (configuration not stated) [US20250313563, Compound 948763], the IC50 in assay [1] is 0.1 to 1 µM; in assay [2], under 0.1 µM.

As to `CCC1(c2cccc(C(F)F)c2)C2=CN=NC2NC2=C1C(=O)NC(C)(C)C2` (configuration not stated) [US20250313563, Compound 947864], the IC50 was 0.1 to 1 µM in assay [1] and under 0.1 µM in assay [2].

Consider `Cn1ccc(S(=O)(=O)N2CCC[C@]3(CC2)C2=CN=NC2NC2=C3C(=O)CC(C)(C)C2)n1` (some centres not stated) [US20250313563, Compound 932640], for which the 50% inhibitory concentration (IC50) in assay [1] and in assay [2] was under 0.1 µM each time.

With `CC1(C)CC2=C(C(=O)C1F)[C@]1(CC[C@@H](C(F)(F)F)CC1)C1=CN=NC1N2` (some centres not stated) [US20250313563, Compound 917134], the results for the IC50 in assay [1] and in assay [2] were 0.1 to 1 µM and under 0.1 µM, respectively.

For `CC[C@]1(c2cccc(C(F)(F)F)c2)C2=C(N=NC2)NC2=C1C(=O)NC2(C)C` [US20250313563, Compound 913451], the IC50 in assay [1] is 0.1 to 1 µM; in assay [2] it was under 0.1 µM.

Turning to `CC[C@]1(c2cccc(-c3cc(C)ncc3F)c2)C2=C(CC(C)(C)NC2=O)NC2N=NC(C(F)(F)F)=C21` (some centres not stated) [US20250313563, Compound 949644], the IC50 in assay [1] fell in the range of 1 to 5 µM; in assay [2], 0.1 to 1 µM.

As for `Cc1cc(S(=O)(=O)N2CCC3(CC2)C2=C(N=NC2)NC2=C3C(=O)CC(C)(C)C2)ccn1` [US20250313563, Compound 947481], the IC50 in assay [1] and in assay [2] was under 0.1 µM in each case.

As for `Cc1cccc2c1CCC21C2=C(N=NC2)NC2=C1C(=O)CC(C)(C)C2` (configuration not stated) [US20250313563, Compound 806603], the IC50 in assay [1] was 0.1 to 1 µM; in assay [2], under 0.1 µM.

Regarding `CC[C@@]1(c2cccc(C(F)(F)F)c2)C2=CN=NC2NC2=C1C(=O)N(c1ccccc1C)CC2` (some centres not stated) [US20250313563, Compound 949129], the IC50 in assay [1] and in assay [2] was over 5 µM in each case.

As to `CCC1(c2cccc(-c3cc(C)nn3C)c2)C2=C(CC(C)(C)CC2=O)NC2N=NC(C(F)(F)F)=C21` (configuration not stated) [US20250313563, Compound 945532], the IC50 in assay [1] is < 0.1 µM and 0.1 to 1 µM; in assay [2] it was under 0.1 µM.

With `CC1CCC(C(=O)N2CC3(C2)CC2(CO3)C3=C(N=NC3)NC3=C2C(=O)CC(C)(C)C3)C1` (configuration not stated) [US20250313563, Compound 947268], the IC50 in assay [1] and in assay [2] was under 0.1 µM throughout.

As to `CCC1(c2cccc(N(C)c3nccc(OC)n3)c2)C2=CN=NC2NC2=C1C(=O)CC(C)(C)C2` (configuration not stated) [US20250313563, Compound 929387], the IC50 in assay [1] and in assay [2] was under 0.1 µM each time.

For `CC[C@@]1(c2cccc(C(C)C)c2)C2=CN=NC2NC2=C1C(=O)CC(C)(C)C2` (some centres not stated) [US20250313563, Compound 810375], the IC50 is over 5 µM in assay [1] and 1 to 5 µM in assay [2].

For the molecule `CC[C@]1(c2cccc(-c3c(F)cncc3OC)c2)C2=C(N=NC2)NC2=C1C(=O)C(C)(C)C2` [US20250313563, Compound 952564], the IC50 in assay [1] was < 0.1 µM and 1 to 5 µM; in assay [2], < 0.1 µM and 0.1 to 1 µM.

As for `CCC1(c2cccc(-c3cncn3C(C)C)c2)C2=CN=NC2NC2=C1C(=O)CC(C)(C)C2` (configuration not stated) [US20250313563, Compound 944026], the IC50 in assay [1] and in assay [2] was under 0.1 µM throughout.

As for `CC[C@]1(c2cccc(-c3ccnc(C)c3)c2)C2=CN=NC2NC2=C1C(=O)[C@@H]1CC[C@H]2C1` (some centres not stated) [US20250313563, Compound 943921], the IC50 in assay [1] is over 5 µM; in assay [2], 1 to 5 µM.

Regarding `CC1(C)CC(=O)C2=C(C1)NC1=C(CN=N1)[C@]21COC2(CN(C(=O)Cc3ccccc3)C2)C1` [US20250313563, Compound 948036], the IC50 in assay [1] and in assay [2] was 0.1 to 1 µM in each case.

Regarding `CC[C@]1(c2cccc(N(C)c3cncnc3)c2)C2=CN=NC2NC2=C1C(=O)CC(C)(C)C2` (some centres not stated) [US20250313563, Compound 915400], the IC50 in assay [1] and in assay [2] was under 0.1 µM throughout.

Regarding `CCC1(c2cccc(C(F)(F)F)c2)C2=CN=NC2NC2=C1C(=O)N(c1ccc(OC)cc1)CC2` (configuration not stated) [US20250313563, Compound 947332], the IC50 was 0.1 to 1 µM in assay [1] and under 0.1 µM in assay [2].

On to `CC[C@]1(c2cccc(-c3cnn(C)c3)c2)C2=C(N=NC2)NC2=C1C(=O)C(C)(C)C2` [US20250313563, Compound 950819], for which the IC50 in assay [1] is 1 to 5 µM; in assay [2], 0.1 to 1 µM.

Take `Cn1ccc(S(=O)(=O)N2CCCC3(CC2)C2=CN=NC2NC2=C3C(=O)CC(C)(C)C2)n1` (configuration not stated) [US20250313563, Compound 917138]: the half-inhibitory concentration (IC50) in assay [1] and in assay [2] was under 0.1 µM in each case.

For the molecule `CC1(C)CC(=O)C2=C(C1)NC1=C(CN=N1)C21CCC2(CCC(=O)N2)CC1` (configuration not stated) [US20250313563, Compound 913056], the IC50 in assay [1] was in the range of 1 to 5 µM; in assay [2] it was 0.1 to 1 µM.

For the molecule `CCC1(c2cccc(N3CCOCC3)c2)C2=C(CC(C)(C)NC2=O)NC2N=NC(C(F)(F)F)=C21` (configuration not stated) [US20250313563, Compound 947863], the IC50 in assay [1] and in assay [2] was under 0.1 µM in each case.

On to `CC[C@]1(c2cccc(-c3ccncc3C3CC3)c2)C2=CN=NC2NC2=C1C(=O)NC(C)(C)C2` (some centres not stated) [US20250313563, Compound 948642], for which the IC50 in assay [1] is 1 to 5 µM; in assay [2], 0.1 to 1 µM.

Turning to `CCC1(c2cccc(-c3cnn(C)c3)c2)C2=C(CC(C)(C)NC2=O)NC2N=NC(Cl)=C21` (configuration not stated) [US20250313563, Compound 948767], the IC50 in assay [1] and in assay [2] was under 0.1 µM in each case.

With `CC[C@]1(c2cccc(-c3ccnn3C)c2)C2=C(CC(C)(C)CC2=O)NC2N=NC(C(F)(F)F)=C21` (some centres not stated) [US20250313563, Compound 947365], the IC50 fell in the range of 1 to 5 µM in assay [1] and 0.1 to 1 µM in assay [2].

With `CC[C@@]1(c2cccc(CN(C)c3ccc(F)nc3)c2)C2=CN=NC2NC2=C1C(=O)CC(C)(C)C2` (some centres not stated) [US20250313563, Compound 932667], the IC50 in assay [1] and in assay [2] was over 5 µM each time.

As to `CC[C@@]1(c2cccc(-c3cc[n+]([O-])cc3[S+](C)[O-])c2)C2=CN=NC2NC2=C1C(=O)CC(C)(C)C2` (some centres not stated) [US20250313563, Compound 947570], the IC50 was 1 to 5 µM in assay [1] and 0.1 to 1 µM in assay [2].

In the case of `CC[C@@]1(c2cccc(-c3ccnn3C)c2)C2=CN=NC2NC2=C1C(=O)N[C@@]1(CCOC1)C2` (some centres not stated) [US20250313563, Compound 948015], the IC50 in assay [1] and in assay [2] was under 0.1 µM throughout.

Turning to `CC[C@@]1(c2cccc(-c3ccnc(C)c3)c2)C2=C(N=NC2)NC2=C1C[C@@H]1CC[C@H]2C1` [US20250313563, Compound 943920], the IC50 in assay [1] was over 5 µM; in assay [2] it was 1 to 5 µM.

With `CCC1(c2cccc(C(F)(F)F)c2)C2=C(N=NC2)NC2=C1C(=O)NC2` (configuration not stated) [US20250313563, Compound 913156], the IC50 was over 5 µM in assay [1] and 0.1 to 1 µM in assay [2].

For the molecule `Cn1cc([C@H]2CC[C@]3(CC2)C2=C(N=NC2)NC2=C3C(=O)CC(C)(C)C2)cn1` [US20250313563, Compound 949322], the IC50 in assay [1] was in the range of 1 to 5 µM; in assay [2] it was 0.1 to 1 µM.

As for `CCC1(c2cccc(-c3cnn4c3CCCC4)c2)C2=C(CC(C)(C)NC2=O)NC2N=NC(C(F)(F)F)=C21` (configuration not stated) [US20250313563, Compound 947801], the IC50 in assay [1] and in assay [2] was under 0.1 µM each time.

As for `CC[C@@]1(c2cccc(-c3ccnc(C)c3)c2)C2=C(N=NC2)NC2=C1C(=O)C(C)(C)C2` [US20250313563, Compound 950283], the IC50 is over 5 µM in assay [1] and 1 to 5 µM in assay [2].

Turning to `CC1(C)CC(=O)C2=C(C1)NC1=C(CN=N1)[C@]21CCCN(S(=O)(=O)C2CC2)CC1` [US20250313563, Compound 932659], the half-inhibitory concentration (IC50) in assay [1] is 0.1 to 1 µM; in assay [2] it was under 0.1 µM.

Turning to `CCC1(c2cccc(-c3cc(C)ncn3)c2)C2=CN=NC2NC2=C1C(=O)CC(C)(C)C2` (configuration not stated) [US20250313563, Compound 948089], the IC50 in assay [1] was 0.1 to 1 µM; in assay [2], under 0.1 µM.

For the molecule `C[C@H]1C[C@@]2(CCN1S(C)(=O)=O)C1=CN=NC1NC1=C2C(=O)CC(C)(C)C1` (some centres not stated) [US20250313563, Compound 926827], the IC50 in assay [1] and in assay [2] was under 0.1 µM each time.

As to `CCC1(c2cccc(-c3ccnc4c3CCC4)c2)C2=C(CC(C)(C)NC2=O)NC2N=NC(C)=C21` (configuration not stated) [US20250313563, Compound 947675], the IC50 in assay [1] is 0.1 to 1 µM; in assay [2] it was under 0.1 µM.
